Assays:
[1] = test system: primary hippocampal neurons; experiment: Neurite outgrowth assay, monocultures of primary hippocampal neurons; format: cell-based, rat; settings: monoculture, stimulated 24 hours; GDNF 1-100 ng/ml, peptides 0.1-27 μg/ml; versus medium alone
Experimental: Two different versions of the neurite outgrowth assay were used in this study, monocultures and co-cultures.
In monocultures, neurons are grown directly on plastic and the only neuritogenic stimulus is the one presented by the added substance. In co-cultures, neurons are grown on top of a confluent monolayer of fibroblasts expressing NCAM-140 (LBN110) or NCAM-negative control fibroblasts (LVN212). NCAM on the neurons interact with NCAM on LBN110 cells thereby stimulating neurite outgrowth from the neurons. This system thus permits the study of NCAM-NCAM interactions and interactions between NCAM and other molecules.
For all experiments cells were grown in neurobasal medium with supplements as described above in a final volume of 300 μl/well in 8-well LabTek® Permanox Chamber slides or 500 μl/well in 4-well LabTek® Permanox Chamber slides.
For monocultures, primary hippocampal neurons were seeded in 8-well LabTek® Permanox Chamber slides at a density of 10,000 cells/well.
To evaluate the effect peptides on neurite outgrowth, GDNF and the peptides, G1, G2, G3, A1, A2, A3, N1, N2 and N3 were diluted to the appropriate concentrations and added to the neurons approximately 10 minutes after seeding. Medium alone was added to controls, and cells were incubated for 24 hours.
Neurite outgrowth experiments were terminated after the stated time by fixating the cells. To visualize neurons and their neurites, immunostaining of GAP-43 was performed. This staining is specific for neurons. Transfected cells and their neurites should be visible without immunostaining due to the fluorescence emitted by GFP. […] GFP is a cytoplasmic protein, and since thin neurites only contain a small volume of cytoplasm, GFP is only found in small amounts in most neurites. Therefore, a double-staining protocol, where cells were immunostained against GFP and GAP-43, was adopted. This protocol allowed the identification of transfected cells on the basis of GFP-staining in combination with visualization of neurites based on GAP-43-staining. […]

GFRα1 receptor = target: T1, GFRα1 receptor (Homo sapiens, UniProt P56159); experiment: Surface plasmon resonance (SPR) binding analysis, GFRα1; settings: immobilized receptor protein, 25° C., PBS pH 7.4
T1 sequence (P56159 25-429): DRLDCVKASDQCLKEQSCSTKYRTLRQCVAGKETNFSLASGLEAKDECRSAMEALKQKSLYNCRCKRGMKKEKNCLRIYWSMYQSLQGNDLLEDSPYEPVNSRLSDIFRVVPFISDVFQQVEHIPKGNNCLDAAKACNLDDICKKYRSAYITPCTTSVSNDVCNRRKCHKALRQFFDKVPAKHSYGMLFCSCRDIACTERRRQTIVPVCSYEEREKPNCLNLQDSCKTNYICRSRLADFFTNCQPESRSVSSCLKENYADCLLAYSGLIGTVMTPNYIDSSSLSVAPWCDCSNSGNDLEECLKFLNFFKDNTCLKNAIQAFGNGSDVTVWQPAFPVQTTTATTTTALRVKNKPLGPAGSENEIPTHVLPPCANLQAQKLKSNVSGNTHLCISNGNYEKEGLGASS
Experimental: Analysis of binding was performed employing a BIAcoreX instrument (Biosensor AB, Uppsala, Sweden) at 25° C. using 10 mM pH 7.4 sodium phosphate containing 150 mM NaCl as running buffer (phosphate-buffered saline, PBS). The flow-rate was 5 μl/min. Data were analysed by non-linear curve-fitting using the manufacturer's software. The receptor proteins, e.g. NCAM Ig1-Ig2 and GFR proteins, were immobilized on a sensor chip CM5 using an amine coupling kit (Biosensor AB) as follows: the chip was activated by 20 μl activation solution; the protein was immobilized using 12 μl 20 μg/ml protein in 10 mM sodium phosphate buffer pH 6.0; the chip was blocked by 35 μl blocking solution. Various peptides at the indicated concentrations were injected into the sensor chip. The curve corresponding to the difference between binding to receptor and a blank chip was used for analysis.

ETTYDKILKNLSRNR (listed as Homo sapiens) [G2, GDNF fragment]
neurite outgrowth, overall effect of treatment (one-way ANOVA) [1]: overall statistical significant effect
binding to the GFRα1 receptor (SPR) (GFRα1 receptor): binding

Reference: patent publication US8138148B2, “GDNF derived peptides” (Copenhagen University, priority 2005, dated 2012)
